Data as given in patent publication US20260283917A1, “ANTI-WRINKLE AGENT” (SHISEIDO COMPANY, LTD., priority 2023, published 2026).

How the values were obtained:
[1] = system: NEP; test: NEP gene expression analysis by real-time PCR in dermal fibroblasts; type: cell-based; conditions: Homo sapiens, NB1RGB, 48 h, read-out: NEP gene expression level
Experimental: (§1) As the control, a medium not comprising these components was used.
(§2) RNA concentrations were calculated using OD260 and diluted with TE Buffer to adjust the RNA concentrations to 10 μg/mL.
(§3) Reverse transcription of RNA was carried out using SuperScript™ IV VILO™ Master Mix with ezDNase (Cat No. 11766050, Invitrogen, USA). 4 μL of SuperScript™ IV VILO™ Master Mix and 6 μL of Nuclease-free Water were added per well in an 8-tube strip and heated at 25° C. for 10 min, 50° C. for 10 min, and 85° C. for 5 min using real-time PCR (QuantStudio (registered trademark) 3, Applied Biosystems, USA) to synthesize cDNA. 10 μL of TaqMan (registered trademark) Fast Advanced Master Mix (Cat No. 4444557, Applied Biosystems, USA), 1 μL of TaqMan Gene Expression, 7 μL of UltraPure™ Distilled Water (Invitrogen, Cat No. 10977-015, USA), and 2 μL of cDNA were added per well in a PCR plate and sealed. A primer (Hs00899658_ml) for MMP-1 and a primer (Hs00153510_ml) for NEP; and a primer (Hs02786624_g1) for GAPDH as an internal standard gene; were used to carry out real-time qPCR, the threshold cycle (Ct) value of each of the MMP-1 gene and the NEP gene in the medium supplemented with each component was calculated, and then Ct value was corrected with GAPDH to obtain a ΔCt value. Assuming that gene level doubles per cycle, when gene expression level of the control was set at 1, the gene expression level in the medium supplemented with each component was determined. In the analysis of gene expression level, the average value of 24-well plate×3 wells was used for each treatment group.

[2] = system: MMP-1; test: MMP-1 gene expression analysis by real-time PCR in dermal fibroblasts; type: cell-based; conditions: Homo sapiens, NB1RGB, 48 h, read-out: MMP-1 gene expression level
Experimental: as §1, §2, §3

[3] = system: human neonatal dermal fibroblast cell line NB1RGB
Experimental: After 24 h, the medium was removed and replaced with a medium to which citronellol (CAS number: 106-22-9, Wako Pure Chemical Industries, Ltd.) was added so as to have the final concentration shown in Table 3 below, and the cells were further cultured within the CO2 incubator for 48 h. As the control, a medium not comprising citronellol was used.
According to the following method, the effect of citronellol on proliferation of dermal fibroblasts was evaluated.
A 96-well plate from which the medium was removed was washed with 100 μL of PBS(−). 100 μL of 0.5 mg/mL 3-(4,5-dimethylthiazol-2-yl)-2,5-diphenyltetrazolium bromide (MTT, CAS No. 298-93-1, Sigma-Aldrich, USA) solution was then added and incubated within a CO2 incubator for 2 h. After removing the MTT solution and washing with 100 μL of PBS(−), 200 μL of 2-propanol (CAS No. 67-63-0, Wako, Japan) was added to dissolve the insoluble formazan. A dye was uniformly dispersed within the 96-well plate, and then absorbance (OD570) at 570 nm was measured using a microplate reader (SPARK (registered trademark), 10M TECAN, Switzerland). Setting OD570 of the control group at 100%, OD570 of the citronellol-added group, i.e., the effect on cell proliferation, was calculated as the cell-activating effect (%) of citronellol. In the analysis of cell-activating effect, the average value of 96-well plate 9×3 wells was used for each treatment group.

[4] = system: Type I collagen; test: Collagen production rate in culture supernatant by sandwich ELISA; type: cell-based; conditions: Homo sapiens, NB1RGB fibroblasts, 48 h, OD405/OD570, no-addition group = 100, read-out: Collagen production rate (%) per cell
Experimental: A supernatant of the culture cultured in 2-1 was dispensed into a new 96-well plate and frozen for storage (−80° C.). The collagen production rate in the culture supernatant was measured by sandwich ELISA, and the effect of citronellol on the collagen level was evaluated.
100 μL of culture supernatant diluted 4-fold with PBS(−) was added to a high-binding 96-well plate, and incubated overnight at 4° C. Type I collagen solution (Cat No. 009-001-103, RCK, USA) was used as a standard substance. […] The dye was uniformized within the 96-well plate, and then absorbance (OD405) at 405 nm was measured using a microplate reader.
Setting OD405 of the control group at 100%, the collagen production rate of citronellol was calculated. In addition, the OD405 of the control and citronellol were each divided by OD570 measured in 2-2 to calculate the collagen production rate per cell. Setting the collagen production rate per cell in the control group at 100%, the collagen production rate of citronellol per cell was calculated.

Row | Structure (SMILES) | fold induction at 50 µM [1] | fold induction at 50 µM [2] | cell-activating effect / toxicity (proliferation of fibroblasts, MTT) [3] | activity at 50 µM [4] [%]
1 | CCCCCOC(=O)CCC [Amyl butyrate] | 0.43 | 0.24 |  | 
2 | CC(C)=CCCC(C)CCO (stereo not shown) [Citronellol] | 0.85 | 0.25 | no cell-activating effect or toxicity | 102
3 | CC(C)=CCCC(C)=CCCC(C)=CCO [Farnesol] | 0.44 | 0.22 |  | 
4 | c1ccc2[nH]ccc2c1 [Indole] | 0.4 | 0.36 |  | 
